Data from paper PMC10804683, “Identification of the pyridoxal 5′‐phosphate allosteric site in human pyridox(am)ine 5′‐phosphate oxidase” (Protein Science : A Publication of the Protein Society, 2024).
Substitutions are numbered along the chain they refer to. Values joined by “and” are separate entries in the source; they are usually repeats but may differ in a detail not shown here. Identical values can stand only once. “Also recorded” adds a separate entry of the source.

Legend:
[1] = molecular target: human PNPO R161C variant; set-up: method as in Barile et al., [2021]; conditions: previous experiments, ref Barile et al., [2021]; cited from earlier work
[2] = molecular target: T1, apo-PNPO F48A/E50L/R258L (Homo sapiens, UniProt Q9NVS9, E50L/F48A/R258L); test: PLP binding by intrinsic fluorescence, apo triple variant; conditions: excitation 280 nm, 100 nM enzyme
T1 construct: a main form corresponding to the entire protein; made in house; host or cells: E. coli BL21(DE3)
T1 sequence (Q9NVS9 1-261 F48A/E50L/R258L): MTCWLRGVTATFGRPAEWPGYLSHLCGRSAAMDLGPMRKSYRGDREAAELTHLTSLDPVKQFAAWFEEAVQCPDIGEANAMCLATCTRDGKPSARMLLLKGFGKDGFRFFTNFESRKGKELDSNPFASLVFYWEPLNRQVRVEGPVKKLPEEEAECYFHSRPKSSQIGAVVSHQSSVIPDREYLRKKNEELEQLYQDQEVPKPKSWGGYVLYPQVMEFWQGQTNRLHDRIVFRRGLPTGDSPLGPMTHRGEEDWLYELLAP
Description: (§1) PLP binding to PNPO can be detected and quantitatively measured using differential scanning fluorimetry (DSF) and also by measuring FMN fluorescence changes. We had previously attributed DSF changes to PLP binding at the active site, while FMN fluorescence changes were attributed to PLP binding at the allosteric site (Barile et al., [2019], [2020]). Previous experiments carried out with the PNPO R161C variant, affecting a residue that is essential for substrate binding and catalysis (and therefore also for PLP binding at the active site), confirms that DSF measurements only report PLP binding at the active site (Barile et al., [2021]; Table 1). […] We expected to observe no FMN fluorescence changes upon titration of the variants with PLP. However, this was not the case, and the dissociation constant values obtained by observing the FMN fluorescence emission were only up to threefold larger in the variants with respect to wild type PNPO (Figure 3). […] To check the second possibility, we measured intrinsic fluorescence changes of wild type and variant apo‐forms (i.e., without FMN) upon PLP titration. […]
(§2) Analyses of PLP binding, based on FMN fluorescence increase observed upon binding of PLP to PNPO, were performed as described in Barile et al. ([2020]). […] Emission spectra were recorded from […], with excitation and emission slits set at 3 and 5 nm, respectively. […]

[3] = molecular target: T2, apo-PNPO wt (Homo sapiens, UniProt Q9NVS9); test: PLP binding by intrinsic fluorescence, apo wild type; conditions: intrinsic fluorescence 335–345 nm, excitation 280 nm, 100 nM enzyme, read-out: Apo-enzyme PLP binding KD^FLUO
T2 construct: a main form corresponding to the entire protein; made in house; host or cells: E. coli BL21(DE3)
T2 sequence (Q9NVS9 1-261): T1 sequence (Q9NVS9 1-261 F48A/E50L/R258L) with A48F, L50E, L258R
Description: as §1, §2

[4] = molecular target: T3, human PNPO F48A/E50L/R258L variant (Homo sapiens, UniProt Q9NVS9, E50L/F48A/R258L); test: PLP binding by DSF, triple variant; conditions: 50 mM Na-HEPES pH 7.6, 2 μM enzyme
T3 construct: a main form corresponding to the entire protein; made in house; host or cells: E. coli BL21(DE3)
T3 sequence (Q9NVS9 1-261 F48A/E50L/R258L): T1 sequence (Q9NVS9 1-261 F48A/E50L/R258L)
Description: as §1
FIGURE 2 DSF measurements with F48A (a), F48A/E50L/R258L (b), F48A/E50L/H248N/R258L (c), and 1‐31del PNPO variants in the presence of different PLP concentrations. Upper panels: Fluorescence change is expressed as fractional variation as a function of temperature. […]

[5] = molecular target: human PNPO wild type (holo-enzyme); set-up: method as in Barile et al. ([2020]); conditions: FMN fluorescence changes, ref Barile et al. ([2020]), read-out: PLP binding KD^FLUO; cited from earlier work
[6] = molecular target: T4, human PNPO wild type (Homo sapiens, UniProt Q9NVS9); set-up: a main form corresponding to the entire protein; made in house; host or cells: E. coli BL21(DE3); method as in Barile et al. ([2020]); conditions: DSF, ref Barile et al. ([2020]), read-out: PLP binding KD^DSF; cited from earlier work
T4 sequence (Q9NVS9 1-261): T1 sequence (Q9NVS9 1-261 F48A/E50L/R258L) with A48F, L50E, L258R

- Kd [3]: 0.6 ± 0.05 µM
- Kd [4]: 6.28 µM and 6.3 µM
Structure (SMILES): Cc1ncc(COP(=O)(O)O)c(C=O)c1O [PLP, pyridoxal 5′‐phosphate]
- PLP binding KD^DSF [1]: No binding
- Apo-enzyme PLP binding KD^FLUO [2]: no change in fluorescence was observed; also recorded: No binding
- Kd [5]: 0.95 ± 0.01 µM
- Kd [6]: 3.2 ± 0.2 µM
